Measurements taken from patent US20200069775A1, “BRAIN OSTEOCALCIN RECEPTOR AND COGNITIVE DISORDERS” (The Trustees of Columbia University in the City of New York, priority 2017, published 2020).

Columns and labels:
[1] = system: CREB phosphorylation in the hippocampus; assay: Stereotactic injection into hippocampus, pCREB and PKA immunofluorescence; format: in vivo, mouse; conditions: 16 h post injection
Text: The resulting effects on animal behavior of direct recombinant uncarboxylated osteocalcin delivery raise the question of the molecular mechanism of action of osteocalcin in the brain. Given that osteocalcin acts through a G-protein coupled receptor pathway in other tissues, e.g., pancreas and testis, the phosphorylated CREB levels in the hippocampi of Ocn−/− and WT animals was checked. […] The hippocampus is essential for optimal spatial learning and memory in rodents. It was then asked whether the acute stereotactic injection of 10 ng of recombinant uncarboxylated osteocalcin directly into the hippocampus of WT animals would affect pCREB levels.

Gpr158 = biological target: T1, Gpr158 (Mus musculus, UniProt Q8C419); assay: Bdnf expression (qPCR) in WT and Gpr158−/− hippocampal neurons; format: cell-based; parameters: visually identified pyramidal neurons in the CA3 area of the hippocampus; from tissue; host or cells: coronal hippocampal slices of 3-4 week old male WT and Gpr158-/- mice; conditions: WT vs Gpr158−/− hippocampal neurons, 4 hours
T1 sequence (Q8C419 25-1200): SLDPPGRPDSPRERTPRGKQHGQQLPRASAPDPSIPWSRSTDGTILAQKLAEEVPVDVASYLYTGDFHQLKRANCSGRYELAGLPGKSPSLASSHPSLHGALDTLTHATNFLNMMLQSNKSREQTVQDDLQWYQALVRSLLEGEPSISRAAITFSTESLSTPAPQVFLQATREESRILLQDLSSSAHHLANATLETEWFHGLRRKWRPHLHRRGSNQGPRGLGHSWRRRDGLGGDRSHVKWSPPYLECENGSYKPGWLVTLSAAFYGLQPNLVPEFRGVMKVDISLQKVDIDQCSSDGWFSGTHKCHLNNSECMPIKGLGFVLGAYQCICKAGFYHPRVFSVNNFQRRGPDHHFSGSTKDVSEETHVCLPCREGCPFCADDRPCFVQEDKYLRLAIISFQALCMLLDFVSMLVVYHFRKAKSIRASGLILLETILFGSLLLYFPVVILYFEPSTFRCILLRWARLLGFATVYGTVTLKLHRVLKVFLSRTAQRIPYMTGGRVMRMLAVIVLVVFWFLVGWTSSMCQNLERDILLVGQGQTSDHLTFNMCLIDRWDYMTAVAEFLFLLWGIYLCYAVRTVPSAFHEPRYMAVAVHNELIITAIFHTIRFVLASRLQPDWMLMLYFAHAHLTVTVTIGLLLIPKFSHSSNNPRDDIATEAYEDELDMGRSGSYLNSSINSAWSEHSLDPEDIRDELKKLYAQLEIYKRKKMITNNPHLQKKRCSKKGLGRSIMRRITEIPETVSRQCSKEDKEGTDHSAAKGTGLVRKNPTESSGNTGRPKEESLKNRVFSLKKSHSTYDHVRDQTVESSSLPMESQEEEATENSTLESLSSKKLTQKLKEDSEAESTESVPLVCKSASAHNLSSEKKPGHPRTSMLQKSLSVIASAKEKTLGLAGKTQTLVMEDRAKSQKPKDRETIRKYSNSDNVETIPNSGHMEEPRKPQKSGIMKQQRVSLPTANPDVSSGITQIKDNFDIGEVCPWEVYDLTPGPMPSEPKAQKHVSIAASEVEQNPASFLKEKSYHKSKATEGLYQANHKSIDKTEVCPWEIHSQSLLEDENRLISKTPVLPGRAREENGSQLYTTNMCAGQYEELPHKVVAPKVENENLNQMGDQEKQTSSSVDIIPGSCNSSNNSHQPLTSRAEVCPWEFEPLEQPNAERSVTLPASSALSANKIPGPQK
Description: FIG. 15. Function analysis of Osteocalcin signaling through Gpr158. (Panel a) IP1 accumulation in WT and Gpr158−/− hippocampal neurons (DIV 15) treated with either vehicle or osteocalcin for 1 hour. Glutamate was used as a positive control. (Panel b) Expression (qPCR) of Th and Bdnf in the midbrain of 6 month-old Gpr158+/− and WT littermates. (Panel c) Expression (qPCR) of Bdnf in WT and Gpr158−/− hippocampal neurons (DIV 15) treated with either vehicle or osteocalcin for 4 hours. (Panel d) Osteocalcin's effect on spontaneous action potential (AP) frequency in CA3 pyramidal neurons in WT (4 of 4 cells) and Gpr158−/− mice. The bars above the recording traces indicate the application of osteocalcin. […] Number of entries and time spent (s) in the open arms were scored. […] Time spent in the lit compartment and open arms was measured. […] Total ambulation (cm) and time spent in the center of the arena (s) were measured. […] Preference index (time spent with novel object/total exploration time) was measured. […] Preference index (time spent with novel object/total exploration time) was measured. […] Percent freezing 24 hours after training was measured. […]
RNA was isolated from brain tissue using TRIZOL (Invitrogen). cDNA synthesis was performed following standard protocol, q-PCR analyses were done using specific quantitative PCR primers (sequences available upon request), and expressed relative to Gapdh levels. […]

What does the source list for “osteocalcin: Recombinant osteocalcin bacterially produced, cleaved from the GST subunit; completely undercarboxylated at all three sites; full-length mouse osteocalcin (YLGASVPSPDPLEPTREQCELNPACDELSDQYGLKTAYKRIYGITI)”?
pCREB staining ([1]; 10 ng into hippocampus of WT animals, vs PBS hemisphere): pCREB staining was increased; PKA staining ([1]; 10 ng into hippocampus, injected hemisphere): widespread and dramatic increase in PKA staining; Bdnf expression (Gpr158): increased Bdnf expression in WT significantly more than in Gpr158−/− hippocampal neurons
